From paper PMC4077311, “A Huge PVDF Adsorption Difference Between Resveratrol and ε-Viniferin Allows to Quantitatively Purify Them and to Assess Their Anti-Tyrosinase Property” (Chromatographia, 2014) come the findings set out here.

For this experiment, the target named is Mushroom tyrosinase (Agaricus bisporus, UniProt C7FF04). Description: Tyrosinase L-DOPA oxidase inhibition activity.
Sequence of Mushroom tyrosinase (G1K3P4 entry or part of it): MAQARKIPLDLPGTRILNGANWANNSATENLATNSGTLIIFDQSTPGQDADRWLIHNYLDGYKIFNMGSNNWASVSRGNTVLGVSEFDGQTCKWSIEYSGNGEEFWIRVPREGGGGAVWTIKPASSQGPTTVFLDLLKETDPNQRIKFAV
Sequence of Mushroom tyrosinase (C7FF04 1-392): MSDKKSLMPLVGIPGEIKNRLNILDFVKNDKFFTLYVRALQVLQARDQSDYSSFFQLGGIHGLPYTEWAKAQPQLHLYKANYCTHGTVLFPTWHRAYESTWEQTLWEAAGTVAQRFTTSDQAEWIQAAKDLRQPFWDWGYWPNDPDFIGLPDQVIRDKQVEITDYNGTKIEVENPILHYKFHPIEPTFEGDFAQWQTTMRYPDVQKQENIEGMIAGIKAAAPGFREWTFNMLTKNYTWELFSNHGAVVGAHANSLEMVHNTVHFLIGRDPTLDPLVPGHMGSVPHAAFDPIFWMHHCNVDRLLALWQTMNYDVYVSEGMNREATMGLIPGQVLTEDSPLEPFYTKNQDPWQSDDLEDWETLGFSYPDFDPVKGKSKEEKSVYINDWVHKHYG

Protocol: Then, 40 μL L-DOPA (2.5 mM) and 80 μL phosphate buffer were added to the solution. Optical density (OD) of each assay, relative to the control, was measured at 492 nm by using a microplate reader (Tecan® Infinite M200 spectrophotometer).
Results expression: Inhibition of enzyme activity by each sample is expressed as % inhibition compared to the control and represented by the following equation: [1 − (ODsample × ODcontrol^−1)] × 100.

In the case of `Oc1ccc(C=Cc2cc(O)cc3c2[C@H](c2cc(O)cc(O)c2)[C@@H](c2ccc(O)cc2)O3)cc1` [trans-ε-Viniferin 2, 5-[(2S, 3S)-6-hydroxy-2-(4-hydroxyphenyl)-4-(4-hydroxystyryl)-2,3-dihydrobenzofuran-3-yl]benzene-1,3-diol], the “Tyrosinase inhibitory activity in words” value is “the most active tyrosinase inhibitor ever tested by us”.

As for `Oc1ccc(/C=C/c2cc(O)cc(O)c2)cc1` [trans-Resveratrol 1, (E)-5-(4-hydroxystyryl)benzene-1,3-diol], the “Tyrosinase inhibitory activity in words” value is on record as “moderate inhibitory activity”.
